Experimental data from patent US20250099554A1, “COMPOSITIONS AND METHODS OF FAS INHIBITION” (ONL Therapeutics, Inc., priority 2018, published 2025).
Entries after “also recorded” stand apart in the source; their conditions may differ. Where a SMILES comes first, the peptide text is derived from it.

Experiments:
[1] = system: neural retina gene expression following elevated IOP; assay: qPCR of neural retina after microbead-induced elevation of IOP (Example 1); type: in vivo, mice
Text: Quantitative PCR (qPCR) was used on neural retina samples isolated at 28 days post microbead or saline injection from mice treated with Compound 1 (or vehicle) on Day 0.
Data shown are mRNA expression fold change over saline+vehicle control+/−SEM. N=6/group, **P<0.01, ***P<0.001, ****P<0.0001.
A 96-well was expanded to a 384-well qPCR system to allow for an increase in the number of genes to be examined in one run.
For this qPCR analysis, saline+vehicle was used as the control. DDCt=experimental DCt−mean DCt of saline+vehicle, and Expression Fold Change=2^−DDCt.

[2] = IOP by rebound tonometer in microbead-induced mouse model of elevated IOP; type: in vivo, C57BL/6J mice
Procedure: (§1) C57BL/6J mice were used in this experiment in which 2 μL of sterile polystyrene microbeads (15 μm; 7.2×10^6 bead/mL) or saline were injected into the anterior chamber on Day 0 followed by 1 μL of 0.5 mg/mL or 2 mg/mL Compound 1 or vehicle by intravitreal (IVT) injection on Day 0 or 7 days after the microbead/saline injections. IOP was followed every 3 days for 4 weeks using a rebound tonometer (TonoLab). At 4 weeks post anterior chamber injection, retinal flatmounts were prepared and stained for Brn3a, an RGC-specific protein, to visualize RGCs. Sixteen non-overlapping images were taken, at 60× with 4-5 images within each quadrant and the images were used to calculate the RGC density. For axon analysis, optic nerves were stained with p-phenylenediamine (PPD) to visualize myelinated axons and 10 non-overlapping photomicrographs were taken at 100× magnification covering the entire area of the optic nerve cross-section, and these images were used to calculate the axon density. Quantitative PCR (qPCR) was also performed on retinal tissue isolated from the mice at 28 days post microbead/saline injections. To assess production of mature IL-1β (p17), protein lysates (20 μg per sample) were prepared from posterior eye cups (neural retina, choroid, and sclera) at 28 days post microbead/saline injections and analyzed by Western blot and densitometry. All data are presented as mean±SEM. […]

[3] = system: retinal ganglion cells (RGCs) and axons; assay: RGC (Brn3a) and axon (PPD) density in microbead-induced mouse model of elevated IOP; type: in vivo, C57BL/6J mice
Procedure: (§2) C57BL/6J mice were used in this experiment in which 2 μL of sterile polystyrene microbeads (15 μm; 7.2×10^6 bead/mL) or saline were injected into the anterior chamber on Day 0 followed by 1 μL of 0.5 mg/mL or 2 mg/mL Compound 1 or vehicle by intravitreal (IVT) injection on Day 0 or 7 days after the microbead/saline injections. IOP was followed every 3 days for 4 weeks using a rebound tonometer (TonoLab). At 4 weeks post anterior chamber injection, retinal flatmounts were prepared and stained for Brn3a, an RGC-specific protein, to visualize RGCs. Sixteen non-overlapping images were taken, at 60× with 4-5 images within each quadrant and the images were used to calculate the RGC density. For axon analysis, optic nerves were stained with p-phenylenediamine (PPD) to visualize myelinated axons and 10 non-overlapping photomicrographs were taken at 100× magnification covering the entire area of the optic nerve cross-section, and these images were used to calculate the axon density. Quantitative PCR (qPCR) was also performed on retinal tissue isolated from the mice at 28 days post microbead/saline injections. To assess production of mature IL-1β (p17), protein lysates (20 μg per sample) were prepared from posterior eye cups (neural retina, choroid, and sclera) at 28 days post microbead/saline injections and analyzed by Western blot and densitometry. All data are presented as mean±SEM. One-way ANOVA and the Sidak multiple-comparison test were used for analysis of RGCs and axons. A p value<0.05 was considered significant.

[4] = system: retinal microglia/macrophages; assay: Iba1 staining of retinal whole mounts, microglia/macrophage activation; type: in vivo, C57BL/6J mice; settings: 28 days post microbead injection, treated at Day 0
Procedure: FIG. 12 depicts representative confocal images of retinal whole mounts at 28 days post microbead injection from mice treated with ONL1204 (or vehicle) at Day 0. Retinal whole mounts were stained with Iba1 (microglia/macrophage). Yellow arrows indicate homeostatic microglia with dendritic morphology; blue arrows indicate activated microglia and/or infiltrating macrophages with amoeboid morphology. Morphometric analysis was performed on Iba1+cells in the ganglion cell layer (60 cells per retina) and the longest process length measured from the edge of the cell body (in […]) was used to quantitate microglia activation.

[5] = system: neural retina inflammatory gene expression; assay: qPCR of neural retina at 28 days post microbead injection (Example 2); type: in vivo, C57BL/6J mice; settings: treated on Day 0
Procedure: as §2
Quantitative PCR was performed on neural retina isolated at 28 days post microbead injection from mice treated with ONL1204 (or vehicle) on Day 0. Data shown are mRNA expression fold change over saline controls+/−SEM. N=4/group, *P<0.05, **P<0.01. For analysis of mature IL-1β (p17) production, protein lysates ([…] per sample) were prepared from posterior eye cups (neural retina, choroid, and sclera) and analyzed by Western blot.

[6] = system: mature IL-1β (p17); assay: Western blot and densitometry of mature IL-1β (p17) in posterior eye cups; type: in vivo, C57BL/6J mice
Procedure: as §1, with “For axon analysis, optic nerves were stained with p-phenylenediamine (PPD) to visualize myelinated axons and 10 non-overlapping photomicrographs were taken at 100× magnification covering the entire area of the optic nerve cross-section, and these images were used to calculate the axon density.” left out, “densitometry.” for “densitometry. All data are presented as mean±SEM.”
Quantitative PCR was performed on neural retina isolated at 28 days post microbead injection from mice treated with ONL1204 (or vehicle) on Day 0. […] For analysis of mature IL-1β (p17) production, protein lysates ([…] per sample) were prepared from posterior eye cups (neural retina, choroid, and sclera) and analyzed by Western blot.

[7] = 28 days post microbead injection, treated Day 0
[8] = 28 days post microbead injection, treated Day 0, vs microbeads and vehicle
[9] = 0.5 mg/ml, 1 μL IVT at Day 0, 4 weeks
[10] = 2.0 mg/mL IVT at Day 7 post-microbead injection, compared to saline plus vehicle controls
[11] = 2 mg/ml, 1 μL IVT at Day 0, 4 weeks

In the case of CC[C@H](C)[C@H](NC(=O)[C@H](Cc1ccc(O)cc1)NC(=O)[C@H](CC(N)=O)NC(=O)[C@@H](NC(=O)[C@H](C)NC(=O)CNC(=O)[C@H](CC(C)C)NC(=O)[C@H](Cc1ccc(O)cc1)NC(=O)[C@@H](NC(=O)[C@H](Cc1cnc[nH]1)NC(=O)[C@@H](N)Cc1cnc[nH]1)[C@@H](C)CC)C(C)C)C(=O)N[C@@H](Cc1ccc(O)cc1)C(N)=O [Compound 1, His-His-Ile-Tyr-Leu-Gly-Ala-Val-Asn-Tyr-Ile-Tyr-amide] (H-HHIYLGAVNYIY-NH2), the ASC gene expression ([1]; 28 day time point) is reported as “Limited or no change”, the Bax gene expression ([1]; 28 day time point) is reported as “unaffected” and the FADD gene expression ([1]; 28 day time point) is reported as “unaffected”. The FasL gene expression ([1]; 28 day time point) was “unaffected”, the FasR gene expression ([1]; 28 day time point) was “unaffected” and the NLRP2 gene expression ([1]; 28 day time point) was “Limited or no change”. For the same compound, the “caspase 3 gene expression” value ([1]; 28 day time point) was “unaffected”, the “complement C4 gene expression” value ([1]; 28 day time point) was “Limited or no change” and the C1q gene expression [1, 7] was “significantly reduced”. The “Caspase 8 gene expression” value [1, 7] was “significantly reduced”, the “Complement C3 gene expression” value [1, 7] was “significantly reduced” and the NLRP3 gene expression [1, 7] was “significantly reduced”. For the same compound, the TLR4 gene expression [1, 7] was “significantly reduced”, the “cFLIP gene expression (pro-survival)” value ([1]; 28 days post microbead injection, treated Day 0, decreased in microbead controls) was “restored to near-baseline” and the GFAP gene expression [1, 8] was “significantly reduced”. The IL-1β gene expression [1, 8] was “significantly reduced”, the IL-6 gene expression [1, 8] was “significantly reduced” and the IL-18 gene expression [1, 8] was “significantly reduced”. For the same compound, the IP-10 gene expression [1, 8] was “significantly reduced”, the MCP-1 gene expression [1, 8] was “significantly reduced” and the MIP1α gene expression [1, 8] was “significantly reduced”. For the same compound, the MIP2 gene expression [1, 8] was “significantly reduced”, the MIP-1β gene expression [1, 8] was “significantly reduced” and the TNFα gene expression [1, 8] was “significantly reduced”. The “effect on IOP” value ([2]; IVT injection on Day 7 post microbeads) was “did not affect”, the “effect on IOP” value ([2]; IVT injection on the same day as the microbeads) was “did not affect” and the axon density [3, 9] was “statistically significant preservation”. The “retinal ganglion cell density” value [3, 9] was “statistically significant preservation”, the axon density [3, 10] was “nearly total preservation” and the “retinal ganglion cell density” value [3, 10] was “nearly total preservation”. The axon density [3, 11] was “statistically significant preservation”, the “retinal ganglion cell density” value [3, 11] was “statistically significant preservation” and the microglial/macrophage activation [4] was “inhibits; also recorded: reduced number of activated microglia/macrophages”. For the same compound, the CCL2/MCP-1 gene expression [5] was “substantially inhibited”, the CCL3/MIP-1α gene expression [5] was “substantially inhibited” and the TNF-α gene expression [5] was “substantially inhibited”. The “production of mature IL-1β” value ([6]; 28 days post microbead injection) was “reduced” and the “reduction in production of mature IL-1β by densitometry, compared to vehicle” value ([6]; Western blot, following microbead injection) was “two-fold”.
